# Measured values from patent US20240376094A2, “SELECTIVE BCL-XL PROTAC COMPOUNDS AND METHODS OF USE” (Les Laboratoires Servier, priority 2021, published 2024).
# What was measured:
# Type in all cases: cell-based
# MOLT-4 cells = assay: MOLT-4 cell viability, MTT assay; details: Homo sapiens, MOLT-4, 48 h
# In short: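 MOLT-4 cells in RPMI 1640 with 10% FBS were exposed to compounds for 48 h at 9 concentrations (3.16-fold dilutions, triplicates). After 4 h with MTT and overnight SDS/HCl solubilisation, absorbance was read at 540 nm. IC50 came from four-parameter fits versus control, as the mean of ≥2 independent experiments.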
# [1] = test system: EBC-1 lung cancer cell line; assay: EBC-1 cell proliferation, CellTiter-Glo assay; details: Homo sapiens, 120 h; Ebc-1 cell viability, CTG assay, 5 days of treatment; read-out: CTG 5 day Ebc1 GI50
# In short: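 EBC-1 cells seeded at 1000 per well overnight, then exposed to 10-point dilutions (0.508 nM–10 μM final) for 5 days at 37 °C, in triplicate. ATP luminescence by CellTiter-Glo, normalised to untreated wells; GI50 from four-parameter logistic fit, runs valid only with at least one doubling.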
# HiBiT-tagged BCL-xL = biological target: T1, HiBiT-tagged BCL-xL (Homo sapiens, UniProt Q07817); assay: NCI-H1650 BCL-xL protein levels, Nano-Glo HiBiT Lytic Detection; details: NCI-H1650 expressing HiBiT-tagged BCL-xL, overnight incubation, read-out: Bcl-xl HIBIT NCIH1650 DC50
# T1 construct: expressed in transfected cells; host or cells: NCI-H1650 (ATCC No. CRL-5883), engineered HiBiT cell line
# In short: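 NCI-H1650 cells expressing HiBiT-tagged BCL-xL (5000/well) were treated overnight at 37° C with 10 concentrations, final 0.508 nM-10 μM, in triplicate. Remaining BCL-xL measured by Nano-Glo HiBiT lytic luminescence, normalized to untreated cells; 50% values by four-parameter logistic fit.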
# Bcl-xL = biological target: T2, Bcl-xL (Homo sapiens, UniProt Q07817); assay: HCT116 Bcl-xL degradation, capillary-based immunoassay (WES); details: for DC50: HCT116, 24 h, 9-point serial dilution; for remaining activity at 0.01 µM / remaining activity at 0.1 µM: HCT-116, 24 h, % of untreated cells; for remaining activity at 0.01 µM: HCT116, 10 nM; for remaining activity at 0.1 µM: HCT116, 100 nM
# T2 construct: Measured levels of Bcl-xL protein of HCT116 cells treated with the tested compounds; host or cells: HCT116
# In short: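 HCT116 cells treated 24 h with compound at 10/100 nM and/or 9-point dilution (quadruplicates), then lysed. Bcl-xL measured by capillary WES immunoassay, normalized to cofilin and expressed as % of untreated cells. DC50 from four-parameter curve fit.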
# T1 sequence (Q07817 whole entry): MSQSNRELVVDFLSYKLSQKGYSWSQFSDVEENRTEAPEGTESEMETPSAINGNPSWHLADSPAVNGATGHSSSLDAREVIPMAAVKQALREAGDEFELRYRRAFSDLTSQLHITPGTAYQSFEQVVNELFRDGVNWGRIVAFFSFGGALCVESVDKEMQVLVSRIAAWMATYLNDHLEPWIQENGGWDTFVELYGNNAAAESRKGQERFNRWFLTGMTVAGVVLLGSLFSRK
# T2 sequence (Q07817 whole entry): as above
SMILES,IC50 (MOLT-4 cells) [nM],GI50 [1] [nM],DC50 (HiBiT-tagged BCL-xL) [nM],DC50 (Bcl-xL) [nM],remaining activity at 0.01 µM (Bcl-xL) [%],remaining activity at 0.1 µM (Bcl-xL) [%]
"Cc1ncsc1-c1ccc([C@H](C)NC(=O)C2C[C@@H](O)CN2C(=O)C(NC(=O)CCCCCC(=O)N2CCN(CC#Cc3ccc(OCCCc4sc(N5CCCc6c5nnc(Nc5nc7ccccc7s5)c6C)nc4C(=O)O)c(F)c3)CC2)C(C)(C)C)cc1 (stereo in doubt) [Example 17, 2-[3-(1,3-benzothiazol-2-ylamino)-4-methyl-6,7-dihydro-5H-pyrido[2,3-c]pyridazin-8-yl]-5-[3-[2-fluoro-4-[3-[4-[7-[[(1S)-1-[(2S,4R)-4-hydroxy-2-[[(1S)-1-[4-(4-methylthiazol-5-yl)phenyl]ethyl]carbamoyl]pyrrolidine-1-carbonyl]-2,2-dimethyl-propyl]amino]-7-oxo-heptanoyl]piperazin-1-yl]prop-1-ynyl]phenoxy]propyl] thiazole-4-carboxylic acid]",3.84,31,> 1670,0.488,32,9
"Cc1ncsc1-c1ccc([C@H](C)NC(=O)[C@@H]2C[C@@H](O)CN2C(=O)[C@@H](NC(=O)CCCCCCN(C)CCOC23CC4(C)CC(C)(CC(Cn5ncc(-c6ccc(N7CCCc8c7nnc(Nc7nc9ccccc9s7)c8C)nc6C(=O)O)c5C)(C4)C2)C3)C(C)(C)C)cc1 [Example 3, 6-[3-(1,3-benzothiazol-2-ylamino)-4-methyl-6,7-dihydro-5H-pyrido[2,3-c]pyridazin-8-yl]-3-[1-[[3-[2-[[7-[[(1S)-1-[(2S,4R)-4-hydroxy-2-[[(1S)-1-[4-(4-methylthiazol-5-yl)phenyl]ethyl]carbamoyl]pyrrolidine-1-carbonyl]-2,2-dimethyl-propyl]amino]-7-oxo-heptyl]-methyl-amino]ethoxy]-5,7-dimethyl-1-adamantyl]methyl]-5-methyl-pyrazol-4-yl]pyridine-2-carboxylic acid]",32.1,9,3,4.21,23,17
"Cc1ncsc1-c1ccc(CNC(=O)[C@@H]2C[C@@H](O)CN2C(=O)[C@@H](NC(=O)CCCCC(=O)N2CCN(CC#Cc3ccc(OCCCc4sc(N5CCCc6c5nnc(Nc5nc7ccccc7s5)c6C)nc4C(=O)O)c(F)c3)CC2)C(C)(C)C)cc1 [Example 19, 2-[3-(1,3-benzothiazol-2-ylamino)-4-methyl-6,7-dihydro-5H-pyrido[2,3-c]pyridazin-8-yl]-5-[3-[2-fluoro-4-[3-[4-[6-[[(1S)-1-[(2S,4R)-4-hydroxy-2-[[4-(4-methylthiazol-5-yl)phenyl]methylcarbamoyl]pyrrolidine-1-carbonyl]-2,2-dimethyl-propyl]amino]-6-oxo-hexanoyl]piperazin-1-yl]prop-1-ynyl]phenoxy]propyl]thiazole-4-carboxylic acid]",13.2,25,> 1670,–,104,88
"Cc1ncsc1-c1ccc(CNC(=O)[C@@H]2C[C@@H](O)CN2C(=O)[C@@H](NC(=O)C2(F)CC2)C(C)(C)C)c(OCCCCCCCCN(C)CCOC23CC4(C)CC(C)(CC(Cn5ncc(-c6ccc(N7CCCc8c7nnc(Nc7nc9ccccc9s7)c8C)nc6C(=O)O)c5C)(C4)C2)C3)c1 [Example 138, 6-[3-(1,3-benzothiazol-2-ylamino)-4-methyl-6,7-dihydro-5H-pyrido[2,3-c]pyridazin-8-yl]-3-[1-[[3-[2-[8-[2-[[[(2S,4R)-1-[(2S)-2-[(1-fluorocyclopropanecarbonyl)amino]-3,3-dimethyl-butanoyl]-4-hydroxy-pyrrolidine-2-carbonyl]amino]methyl]-5-(4-methylthiazol-5-yl)phenoxy]octyl-methyl-amino]ethoxy]-5,7-dimethyl-1-adamantyl]methyl]-5-methyl-pyrazol-4-yl]pyridine-2-carboxylic acid]",3.31,–,> 1670,21.2,–,–

# Now those with a lower IC50 (MOLT-4 cells), led by results:
IC50 (MOLT-4 cells) [nM],GI50 [1] [nM],DC50 (HiBiT-tagged BCL-xL) [nM],DC50 (Bcl-xL) [nM],remaining activity at 0.01 µM (Bcl-xL) [%],remaining activity at 0.1 µM (Bcl-xL) [%],SMILES
1.07,9,3,0.47,7,7,"Cc1ncsc1-c1ccc([C@H](C)NC(=O)C2C[C@@H](O)CN2C(=O)C(NC(=O)CCCCCCC(=O)N2CCN(CC#Cc3ccc(OCCCc4sc(N5CCCc6c5nnc(Nc5nc7ccccc7s5)c6C)nc4C(=O)O)c(F)c3)CC2)C(C)(C)C)cc1 (stereo in doubt) [Example 16, 2-[3-(1,3-benzothiazol-2-ylamino)-4-methyl-6,7-dihydro-5H-pyrido[2,3-c]pyridazin-8-yl]-5-[3-[2-fluoro-4-[3-[4-[8-[[(1S)-1-[(2S,4R)-4-hydroxy-2-[[(1S)-1-[4-(4-methylthiazol-5-yl)phenyl]ethyl]carbamoyl]pyrrolidine-1-carbonyl]-2,2-dimethyl-propyl]amino]-8-oxo-octanoyl]piperazin-1-yl]prop-1-ynyl]phenoxy]propyl]thiazole-4-carboxylic acid]"
1.06,13,1,0.286,26,11,"Cc1ncsc1-c1ccc([C@H](C)NC(=O)[C@@H]2C[C@@H](O)CN2C(=O)[C@@H](NC(=O)CCCCCCCCCCCN(C)CCOC23CC4(C)CC(C)(CC(Cn5ncc(-c6ccc(N7CCCc8c7nnc(Nc7nc9ccccc9s7)c8C)nc6C(=O)O)c5C)(C4)C2)C3)C(C)(C)C)cc1 [Example 2, 6-[3-(1,3-benzothiazol-2-ylamino)-4-methyl-6,7-dihydro-5H-pyrido[2,3-c]pyridazin-8-yl]-3-[1-[[3-[2-[[12-[[(1S)-1-[(2S,4R)-4-hydroxy-2-[[(1S)-1-[4-(4-methylthiazol-5-yl)phenyl]ethyl]carbamoyl]pyrrolidine-1-carbonyl]-2,2-dimethyl-propyl]amino]-12-oxo-dodecyl]-methyl-amino]ethoxy]-5,7-dimethyl-1-adamantyl]methyl]-5-methyl-pyrazol-4-yl]pyridine-2-carboxylic acid]"
0.85,1,0.4,0.279,33,14,"Cc1ncsc1-c1ccc([C@H](C)NC(=O)[C@@H]2C[C@@H](O)CN2C(=O)[C@@H](NC(=O)CCCCCCCCCCCCCN(C)CCOC23CC4(C)CC(C)(CC(Cn5ncc(-c6ccc(N7CCCc8c7nnc(Nc7nc9ccccc9s7)c8C)nc6C(=O)O)c5C)(C4)C2)C3)C(C)(C)C)cc1 [Example 4, 6-[3-(1,3-benzothiazol-2-ylamino)-4-methyl-6,7-dihydro-5H-pyrido[2,3-c]pyridazin-8-yl]-3-[1-[[3-[2-[[14-[[(1S)-1-[(2S,4R)-4-hydroxy-2-[[(1S)-1-[4-(4-methylthiazol-5-yl)phenyl]ethyl]carbamoyl]pyrrolidine-1-carbonyl]-2,2-dimethyl-propyl]amino]-14-oxo-tetradecyl]-methyl-amino]ethoxy]-5,7-dimethyl-1-adamantyl]methyl]-5-methyl-pyrazol-4-yl]pyridine-2-carboxylic acid]"
0.717,1,> 1670,0.11,19,23,"Cc1c(Nc2nc3ccccc3s2)nnc2c1CCCN2c1ccc(-c2cnn(CC34CC5(C)CC(C)(C3)CC(OCCN(C)CCCCCCCCCCOc3ccc6c(c3)C(=O)N(C3CCC(=O)NC3=O)C6=O)(C5)C4)c2C)c(C(=O)O)n1 (centres unmarked) [Example 60, 6-[3-(1,3-benzothiazol-2-ylamino)-4-methyl-6,7-dihydro-5H-pyrido[2,3-c]pyridazin-8-yl]-3-[1-[[3-[2-[10-[2-(2,6-dioxo-3-piperidyl)-1,3-dioxo-isoindolin-5-yl]oxydecyl-methyl-amino]ethoxy]-5,7-dimethyl-1-adamantyl]methyl]-5-methyl-pyrazol-4-yl]pyridine-2-carboxylic acid]"
0.493,2,1,0.742,52,34,"Cc1ncsc1-c1ccc([C@H](C)NC(=O)[C@@H]2CC(O)CN2C(=O)[C@@H](NC(=O)CCCCCCCCCCCCCCN(C)CCOC23CC4(C)CC(C)(CC(Cn5ncc(-c6ccc(N7CCCc8c7nnc(Nc7nc9ccccc9s7)c8C)nc6C(=O)O)c5C)(C4)C2)C3)C(C)(C)C)cc1 (stereo in doubt) [Example 7, 6-[3-(1,3-benzothiazol-2-ylamino)-4-methyl-6,7-dihydro-5H-pyrido[2,3-c]pyridazin-8-yl]-3-[1-[[3-[2-[[15-[[(1S)-1-[(2S,4R)-4-hydroxy-2-[[(1S)-1-[4-(4-methylthiazol-5-yl)phenyl]ethyl]carbamoyl]pyrrolidine-1-carbonyl]-2,2-dimethyl-propyl]amino]-15-oxo-pentadecyl]-methyl-amino]ethoxy]-5,7-dimethyl-1-adamantyl]methyl]-5-methyl-pyrazol-4-yl]pyridine-2-carboxylic acid]"
